# In article PMC12332404, “Cytochrome P450BM-3 and P450 11A1 retain Compound I (FeO^3+) chemistry with electrophilic substrates poised for Compound 0 (Fe^3+O2^−) reactions” (The Journal of Biological Chemistry, 2025):
# Tests used:
# [1] = target: T1, P450BM-3 (102A1) (Priestia megaterium, UniProt P14779); experiment: UV-vis spectral binding titration (Type I shift, […] to […] nm)
# T1 construct: gene cyp102A1
# T1 sequence (P14779 1-1049): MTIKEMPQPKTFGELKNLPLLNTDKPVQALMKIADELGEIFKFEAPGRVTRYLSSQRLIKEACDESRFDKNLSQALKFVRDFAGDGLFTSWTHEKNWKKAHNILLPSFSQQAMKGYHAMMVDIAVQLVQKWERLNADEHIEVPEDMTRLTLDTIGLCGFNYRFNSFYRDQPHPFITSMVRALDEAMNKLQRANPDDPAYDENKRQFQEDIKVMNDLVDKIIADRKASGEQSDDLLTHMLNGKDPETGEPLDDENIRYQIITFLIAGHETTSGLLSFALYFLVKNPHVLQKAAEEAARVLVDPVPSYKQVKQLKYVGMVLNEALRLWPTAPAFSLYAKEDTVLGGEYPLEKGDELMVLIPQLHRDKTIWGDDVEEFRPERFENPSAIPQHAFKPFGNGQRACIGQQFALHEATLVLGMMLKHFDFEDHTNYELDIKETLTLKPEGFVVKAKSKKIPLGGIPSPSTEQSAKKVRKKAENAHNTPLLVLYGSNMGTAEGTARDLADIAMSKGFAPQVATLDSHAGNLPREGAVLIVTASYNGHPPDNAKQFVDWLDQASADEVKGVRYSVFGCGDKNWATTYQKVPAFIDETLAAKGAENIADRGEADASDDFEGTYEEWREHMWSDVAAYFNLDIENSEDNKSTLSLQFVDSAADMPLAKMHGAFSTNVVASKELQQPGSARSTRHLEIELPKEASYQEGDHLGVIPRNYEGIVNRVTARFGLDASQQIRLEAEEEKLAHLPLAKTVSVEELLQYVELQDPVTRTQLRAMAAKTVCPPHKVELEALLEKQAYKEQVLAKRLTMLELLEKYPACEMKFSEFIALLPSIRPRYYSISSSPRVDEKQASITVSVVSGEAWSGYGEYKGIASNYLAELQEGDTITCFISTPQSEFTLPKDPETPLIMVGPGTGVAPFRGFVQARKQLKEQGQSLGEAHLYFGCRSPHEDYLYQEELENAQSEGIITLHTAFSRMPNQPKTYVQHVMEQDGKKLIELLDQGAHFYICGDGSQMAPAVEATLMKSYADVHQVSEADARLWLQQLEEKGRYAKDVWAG
# [2] = target: T1, P450BM-3 (102A1); experiment: NADPH oxidation and LC-MS hydroxylation rate ([…] min^-1) with purified enzyme; assay type: biochemical
# [3] = target: T1, P450BM-3 (102A1); experiment: as above; assay type: biochemical; remark: listed apart in the source
# [4] = target: T1, P450BM-3 (102A1); experiment: as above; assay type: biochemical; remark: listed apart in the source
# [5] = target: T2, P450 11A1 (Homo sapiens, UniProt P05108); experiment: UV-vis spectral binding titration (Type II behavior); LC-MS turnover
# T2 construct: gene CYP11A1
# T2 sequence (P05108 40-521): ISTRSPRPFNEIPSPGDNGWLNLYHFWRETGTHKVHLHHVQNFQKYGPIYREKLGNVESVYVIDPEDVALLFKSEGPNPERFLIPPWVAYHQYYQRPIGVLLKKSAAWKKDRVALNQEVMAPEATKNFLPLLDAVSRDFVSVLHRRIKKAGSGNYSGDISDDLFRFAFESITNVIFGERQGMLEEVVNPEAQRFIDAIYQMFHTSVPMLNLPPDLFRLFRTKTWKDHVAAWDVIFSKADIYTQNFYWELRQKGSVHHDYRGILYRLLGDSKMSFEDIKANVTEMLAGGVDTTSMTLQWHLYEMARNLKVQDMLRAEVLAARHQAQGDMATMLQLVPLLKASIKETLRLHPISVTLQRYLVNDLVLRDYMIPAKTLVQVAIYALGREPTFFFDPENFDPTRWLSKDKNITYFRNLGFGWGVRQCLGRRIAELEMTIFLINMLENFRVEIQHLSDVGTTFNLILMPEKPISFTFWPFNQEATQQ
smiles,measurement,setting,value
"CC(=O)CCCCCCCCCCC(=O)O [12-oxo C13:0, 12-oxotridecanoic acid]",Kd,[1],~250 µM
"CCCCCCCCCCCCCC(=O)O [C14:0, tetradecanoic acid]",NADPH oxidation and LC-MS hydroxylation rate (73 min^-1) with purified enzyme,[2],73 min⁻¹
"CCCCCCCCCCCCCCCC(=O)O [C16:0, palmitic acid]",NADPH oxidation and LC-MS hydroxylation rate (100 min^-1) with purified enzyme,[3],100 min⁻¹
"CCCCCCCCCCCC(=O)O [C12:0, dodecanoic acid]",NADPH oxidation and LC-MS hydroxylation rate (2.4 min^-1) with purified enzyme,[4],2.4 min⁻¹
CC(C)CCC(=O)[C@@H](C)[C@H]1CC[C@H]2[C@@H]3CC=C4C[C@@H](O)CC[C@]4(C)[C@H]3CC[C@]12C [22-oxocholesterol],Kd,[5],43 ± 20 µM
